Source: patent publication US20090324682A1 (priority 2004, published 2009)

Columns and labels:
[1] = tested on: Human smooth muscle cells (SMC); assay: Proliferation of human smooth muscle cell cultures treated with rhodamine 123 and/or FDG; assay type: cell-based
Description: Human smooth muscle cells (SMC) were treated with rhodamine 123 and/or with FDG.
Three levels of Rhodamine 123 concentration were used first: 0.05, 1 and 2.5 mg/ml.
A combined composition of FDG and Rhodamine at various dosages were evaluated on the same human SMC cultures. The doses (FDG/rhodamine in mg/ml) were as follows: […]

[2] = Maximal tolerated dose of Rhodamine 123 delivered intra-venously in man; assay type: in vivo; details: 70 kg patient
Description: Because inhibitors of oxidative phorphorylation are extremely toxic to a subject in the doses needed for efficacy via the systemic route, such inhibitors have been largely overlooked for effective treatment of conditions such as cancer. […] It is also known that the maximal tolerated dose of Rhodamine 123 delivered intra-venously in man is 95 mg/m^2. For a 70 kg patient, the maximum dose of systemically delivered rhodamine is about 150 mg. […] There was an accumulation of rhodamine in the prostate of the patients, but it was not sufficient to provoke a significant response.

[3] = tested on: prostate tumours; details: maximum non-lethal systemic dose, cited from earlier work

rhodamine 123
concentration enough to stop smooth muscle cell proliferation [1]: 5 µg/mL
proliferation rates of SMC compared to non rhodamine treated cells ([1]; Rhodamine 123 0.05 mg/ml): 90+21.6%
proliferation rates of SMC compared to non rhodamine treated cells ([1]; Rhodamine 123 1 mg/ml): 51.2 ± 10.7%
proliferation rates of SMC compared to non rhodamine treated cells ([1]; Rhodamine 123 2.5 mg/ml): 7.3 ± 5.1%
SMC proliferation ([1]; higher rhodamine concentrations (above 2.5 mg/ml)): totally suppressed
maximum dose of systemically delivered rhodamine [2]: about 150 mg
effect on prostate tumours [3]: no useful effect
rhodamine in the prostate of the patients ([3]; not sufficient to provoke a significant response): accumulation
